US10092620B2, “Uses of cyclic peptides for treating and preventing atherosclerosis” (THE SCRIPPS RESEARCH INSTITUTE, priority 2013, dated 2018)
“Also recorded” adds a separate entry of the source. Non-standard residues stand in square brackets, D forms with d. Residues, ends and D or L forms follow the SMILES beside them.

Columns and labels:
plasma HDL = test: in vivo plasma HDL remodeling after intraperitoneal injection (Western blotting for mouse apoA-I); details: male BALB/c mice (n=3), i.p. 20 mg/kg; FIG. 3a; 20 mg/kg
Protocol: To ascertain if the cyclic D,L-α-peptides function in vivo as modulators of HDL, we administered 1 to mice (BALB/c, n=3) via intraperitoneal injection (i.p.) at a dose of 20 mg/kg. After various times, blood was drawn and the plasma was analyzed by Western blotting to determine the levels of the HDL subpopulations.
In vivo plasma remodeling: Cyclic peptide c[wLwReQeR], 1, was dissolved in 10% sucrose, and sterile filtered through a 0.22-μm syringe filter before injection. Mice were fasted beginning 12 h before dosing, and continued the fast until after the 8-h time point blood draw was completed. Groups of three mice received a 20 mg/kg dose of the cyclic peptide via intraperitoneal injection (0.3 mL). Blood was drawn (30-60 μL) from the retro-orbital sinus into a heparinized capillary tube before dosing (0 min) and at different intervals from 30 min to 8 h after dosing. Plasma was isolated immediately from the whole blood by centrifugation at 5000 rpm for 10 min at 4° C., after which 10 μL of plasma were mixed with 90 μL of 50% sucrose, vortexed for 30 s, and stored at 4° C. until all time points had been collected (samples were stored from 0-8 h). Samples were then mixed with 20 μL of 6× native loading buffer (125 mM tris, pH 6.8, 0.02% bromophenol, 20% glycerol). 6 μL of these samples were loaded onto a 4-20% polyacrylamide gel. Gels were run at constant 80 V at 4° C. for 14 h using a Laemli buffer system (25 mM tris, 192 mM glycine, pH 8.3). Gels were then blotted onto nitrocellulose membranes (0.45 μm, Bio-Rad) at constant 30 V at 4° C. for 2 h using the Laemli buffer (no methanol). The membrane was blocked with 5% non-fat dry milk (NFDM) in TBST (20 mM tris, 150 mM NaCl, pH 7.6, 0.1% Tween-20) for 1 h at 23° C., and then washed once for 10 min with TBST. […]
In vivo plasma HDL remodeling activities of some of the peptides were also analyzed. […] Results shown in the figure were determined by Western blotting for mouse apoA-I.

[1] = mouse pharmacokinetics, i.p., LC-MS SIM; format: in vivo; details: male, BALB/cByJ, plasma, ip, BALB/c mice, i.p. 16 mg/kg
Protocol: Pharmacokinetics: The TSRI Institutional Animal Care and Use Committee approved all experimental protocols involving live animals. Male mice (20 g) on a BALB/cByJ background were obtained from the Rodent Breeding Colony of the Department of Animal Resources at TSRI, and were maintained on a chow diet. The cyclic peptide c[wLwReQeR], 1, was dissolved in PBS containing 1% sucrose, and sterile filtered through a 0.22-μm syringe filter before injection. Mice were fasted beginning 12 h before dosing, and continued the fast until after the 8-h time point blood draw was completed. Groups of three mice received a 16-mg/kg dose of the cyclic peptide via intraperitoneal injection (0.3 mL). Blood was drawn (30-60 μL) from the retro-orbital sinus into a heparinized capillary tube before dosing (0 min) and at different intervals from 30 min to 8 h after dosing. Plasma was isolated immediately from the whole blood by centrifugation at 5000 rpm for 10 min at 4° C. […] The resultant supernatant was analyzed by using LC-MS SIM as described below.
LC-MS SIM quantitation of peptide concentration: Cyclic peptide concentrations were quantified by using reverse-phase HPLC coupled with mass spectrometry. […] For quantitative calibration, standard curves were established using mouse EDTA-anticoagulated plasma spiked with various concentrations of the peptide. […]

CC(C)C[C@@H]1NC(=O)[C@@H](Cc2c[nH]c3ccccc23)NC(=O)[C@H](CCCNC(=N)N)NC(=O)[C@@H](CCC(=O)O)NC(=O)[C@H](CCC(N)=O)NC(=O)[C@@H](CCC(=O)O)NC(=O)[C@H](CCCNC(=N)N)NC(=O)[C@@H](Cc2c[nH]c3ccccc23)NC1=O [SEQ ID NO:1, c[wLwReQeR]] (cyclo([dW]L[dW]R[dE]Q[dE]R))
level of lipid-poor HDL in plasma (plasma HDL): marked increase in the amount of lipid-poor HDL for up to 8 h; also recorded: increased the level of lipid-poor HDL
half-life [1]: ~2 h
